Here are results for 7 molecules from patent publication US10344026B2, “Compositions and methods of targeting mutant K-ras” (NANTBIO, INC., priority 2017, dated 2019).

Holding throughout (type): cell-based
The target of experiment [1] is T1, wild type K-Ras (Homo sapiens, UniProt P01116).
T1 construct: expressed in transfected cells; host or cells: 293H cells
Description: G-LISA Ras activation, 293H cells transfected with Ras wild-type, EGF stimulated. The note with it: compound 1 hour, then 100 ng/ml EGF 2 minutes. In short, it runs like this:
(§1)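 Active Ras was quantified by G-LISA in lysates of 293H cells made the day after transfection with wild-type, G12D or G12V Ras plasmid (5 μg). Compounds were applied at 3.125-25 μM for 1 h; only the wild-type cells got a 2-min 100 ng/ml EGF pulse before lysis.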

For experiment [2], the target named is T2, K-Ras G12D (Homo sapiens, UniProt P01116, G12D).
T2 construct: expressed in transfected cells; host or cells: 293H cells
The experiment in a line: G-LISA Ras activation, 293H cells transfected with G12D mutant. The note with it: compound 1 hour. In short, it runs like this:
as §1

Experiment [3] has as its system Ishikawa (K-Ras wild type cell line). Description: Viability assay (CellTiterBlue, 72 hr) Ishikawa. The note with it: Homo sapiens, GI50, CellTiterBlue, Ishikawa K-Ras wild-type. In short, it runs like this:
(§2)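 Each line was plated at 1000 cells per well and incubated for 72 hr with compound after an 18 hr settling period. CellTiterBlue fluorescence measured the result, and GI50 was fitted relative to DMSO and tamoxifen controls.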

For experiment [4], the system named is U87-MG (K-Ras wild type cell line). The experiment in a line: Viability assay (CellTiterBlue, 72 hr) U87-MG. The note with it: Homo sapiens, U-87 MG, GI50, CellTiterBlue, U87-MG K-Ras wild-type. A digest of the protocol:
as §2

Experiment [5] has as its system HCC827 (K-Ras wild type cell line). The experiment in a line: Viability assay (CellTiterBlue, 72 hr) HCC827. The following applies: Homo sapiens, GI50, CellTiterBlue, HCC827 K-Ras wild-type. A digest of the protocol: as §2
Experiment [6] concerns A375 (K-Ras wild type cell line). Description: Viability assay (CellTiterBlue, 72 hr) A375. The note with it: Homo sapiens, A-375, GI50, CellTiterBlue. A digest of the protocol:
as §2

In experiment [7] the test system is Panc1-G12D. The experiment in a line: Viability assay (CellTiterBlue, 72 hr) Panc1. The following applies: Homo sapiens, PANC-1, GI50, CellTiterBlue, Panc1 K-Ras G12D, read-out: 72 hr Cell Viability Panc1 (G12D). A digest of the protocol: as §2
The subject of experiment [8] is Panc10.05-G12D. The experiment in a line: Viability assay (CellTiterBlue, 72 hr) Panc10.05. The following applies: Homo sapiens, Panc1005, GI50, CellTiterBlue, Panc10.05 K-Ras G12D, read-out: 72 hr Cell Viability Panc10.05 (G12D). In short, it runs like this: as §2
Experiment [9] deals with HCT116-G31D. Description: Viability assay (CellTiterBlue, 72 hr) HCT116. The note with it: Homo sapiens, HCT-116, GI50, CellTiterBlue, HCT116 K-Ras G13D, read-out: 72 hr Cell Viability HCT116 (G13D). A digest of the protocol: as §2
Experiment [10] relates to phospho-ERK in HCC827 (Wild-type). The experiment in a line: In-Cell Western phospho-ERK, HCC827. The following applies: Homo sapiens, 1 h; HCC827, one hour treatment; read-out: In-Cell Western HCC827 (Wild-type) Erk (P). A digest of the protocol: (§3)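 In-cell immunofluorescence: after 1 h compound exposure (final DMSO 0.5%) of cells plated 18 h beforehand, fixed cells were probed overnight at 4 °C with phospho-Akt/phospho-ERK antibodies and imaged. Maximal inhibition defined by 1 uM MEK Inhibitor II for pERK, 1 uM BEZ235 for pAkt; EC50 calculated.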

The subject of experiment [11] is phospho-Akt in HCC827 (Wild-type). The experiment in a line: In-Cell Western phospho-Akt, HCC827. The following applies: Homo sapiens, 1 h; HCC827, one hour treatment; read-out: In-Cell Western HCC827 (Wild-type) Akt (P). A digest of the protocol: as §3
The test system of experiment [12] is phospho-ERK in A375 (Wild-type). The experiment in a line: In-Cell Western phospho-ERK, A375. The following applies: Homo sapiens, A-375, 1 h; A375, one hour treatment; read-out: In-Cell Western A375 (Wild-type) Erk (P). In short, it runs like this: as §3
Experiment [13] relates to phospho-Akt in A375 (Wild-type). The experiment in a line: In-Cell Western phospho-Akt, A375. The note with it: Homo sapiens, A-375, 1 h; A375, one hour treatment; read-out: In-Cell Western A375 (Wild-type) Akt (P). A digest of the protocol: as §3
Experiment [14] deals with phospho-ERK in Panc1 (G12D). The experiment in a line: In-Cell Western phospho-ERK, Panc1. The note with it: Homo sapiens, PANC-1, 1 h; Panc1, one hour treatment; read-out: In-Cell Western Panc1 (G12D) Erk (P). In short, it runs like this:
as §3

Experiment [15] relates to phospho-Akt in Panc1 (G12D). Description: In-Cell Western phospho-Akt, Panc1. The note with it: Homo sapiens, PANC-1, 1 h; Panc1, one hour treatment; read-out: In-Cell Western Panc1 (G12D) Akt (P). In short, it runs like this: as §3
In experiment [16] the test system is phospho-ERK in Panc10.05 (G12D). Description: In-Cell Western phospho-ERK, Panc10.05. The note with it: Homo sapiens, Panc1005, 1 h; Panc10.05, one hour treatment; read-out: In-Cell Western Panc10.05 (G12D) Erk (P). A digest of the protocol: as §3
The test system of experiment [17] is phospho-Akt in Panc10.05 (G12D). Description: In-Cell Western phospho-Akt, Panc10.05. The note with it: Homo sapiens, Panc1005, 1 h; Panc10.05, one hour treatment; read-out: In-Cell Western Panc10.05 (G12D) Akt (P). In short, it runs like this: as §3

Molecules are shown by their SMILES. Some results are limits rather than exact numbers.

T2 sequence (P01116 whole entry G12D): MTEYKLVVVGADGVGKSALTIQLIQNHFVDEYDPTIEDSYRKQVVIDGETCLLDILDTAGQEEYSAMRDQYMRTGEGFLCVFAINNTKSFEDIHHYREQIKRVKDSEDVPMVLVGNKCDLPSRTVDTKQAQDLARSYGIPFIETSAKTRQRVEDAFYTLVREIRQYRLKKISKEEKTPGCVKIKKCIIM
T1 sequence (P01116 whole entry): as the sequence (P01116 whole entry G12D) above, with D12G counted along it

Turning to `Cc1nn(-c2ccccc2)c(C)c1C(=O)Nc1nc(-c2ccc3c(c2)CCC(=O)N3)cs1` [Compound 53, 3,5-dimethyl-N-(4-(2-oxo-1,2,3,4-tetrahydroquinolin-6-yl)thiazol-2-yl)-1-phenyl-1H-pyrazole-4-carboxamide], the IC50 in [1] was found to be 7.7 µM; in [2], 6.7 µM; in [3] it was 13 µM; in experiment [4], 15 µM; in [5], 10 µM; in [6] it was 3 µM. The IC50 in experiment [7] came to 12 µM; in experiment [8] it was 10 µM; in [9], 11 µM. Besides, the EC50 in experiment [10] is 14 µM; in experiment [11] it was greater than 25 µM; in experiment [12] it was 6 µM; in experiment [13], 10 µM; in experiment [14], 16 µM; in experiment [15], greater than 25 µM. For the same molecule, the EC50 in [16] came out at 3 µM; in experiment [17], 15 µM.
For `Cc1nc(C)c(C(=O)Nc2nc(-c3ccc4c(c3)CCC(=O)N4CCn3cncn3)cs2)o1` [Compound 108, N-(4-(1-(2-(1H-1,2,4-triazol-1-yl)ethyl)-2-oxo-1,2,3,4-tetrahydroquinolin-6-yl)thiazol-2-yl)-2,4-dimethyloxazole-5-carboxamide], the IC50 in experiment [2], in experiment [3], in [4], in [5], in [6] and in experiment [7] was greater than 25 µM throughout. Moreover, the IC50 in [8] and in experiment [9] was greater than 25 µM in each case. In addition, the EC50 in experiment [10], in experiment [11], in experiment [12], in experiment [13], in [14] and in [15] was greater than 25 µM throughout. Also, the EC50 in experiment [16] is 21 µM; in experiment [17] it was greater than 25 µM.
For the molecule `Cc1nn(C(C)C)c(C)c1C(=O)Nc1nc(-c2ccc3c(c2)CCC(=O)N3Cc2cccnc2)cs1` [Compound 117, 1-isopropyl-3,5-dimethyl-N-(4-(2-oxo-1-(pyridin-3-ylmethyl)-1,2,3,4-tetrahydroquinolin-6-yl)thiazol-2-yl)-1H-pyrazole-4-carboxamide], the IC50 in experiment [1] was 6.7 µM; in experiment [2] it was 2.6 µM; in experiment [3], 5 µM; in experiment [4], greater than 25 µM; in experiment [5], 4 µM; in [6], 14 µM. Further, the IC50 was 3 µM in [7], 1.4 µM in [8] and greater than 25 µM in [9]. Besides, the EC50 in experiment [10] is 4 µM; in experiment [11], greater than 25 µM; in experiment [12], 15 µM; in experiment [13], greater than 25 µM; in [14] it was 4 µM; in experiment [15], 23 µM. Moreover, the EC50 in [16] was determined as 0.914 µM; in experiment [17], 3 µM.
On to `Cc1nn(C(C)C)c(C)c1C(=O)Nc1nc(-c2ccc3c(c2)CCC(=O)N3)cs1` [Compound 52, 1-isopropyl-3,5-dimethyl-N-(4-(2-oxo-1,2,3,4-tetrahydroquinolin-6-yl)thiazol-2-yl)-1H-pyrazole-4-carboxamide], for which the IC50 in experiment [1] was 13.9 µM; in [2], 5.2 µM; in [3], 13 µM; in experiment [4], 14 µM; in experiment [5] it was 10 µM; in experiment [6], 5 µM. For the same molecule, the results for the IC50 in experiment [7], in experiment [8] and in experiment [9] were 16 µM, 15 µM and 10 µM, respectively. Moreover, the EC50 in experiment [10] was 20 µM; in experiment [11], greater than 25 µM; in experiment [12], 14 µM; in experiment [13], 24 µM; in experiment [14] it was 8 µM; in [15] it was greater than 25 µM. Besides, the results for the EC50 in [16] and in experiment [17] were 4 µM and 18 µM, respectively.
In the case of `CCCn1nc(C)c(C(=O)Nc2nc(-c3ccc4c(c3)CCC(=O)N4)cs2)c1C` [Compound 55, 3,5-dimethyl-N-(4-(2-oxo-1,2,3,4-tetrahydroquinolin-6-yl)thiazol-2-yl)-1-propyl-1H-pyrazole-4-carboxamide], the IC50 in [1] is 6.5 µM; in experiment [2], 4 µM; in experiment [3] it was greater than 25 µM; in [4] it was greater than 25 µM; in experiment [5], greater than 25 µM; in experiment [6], greater than 25 µM. The IC50 in experiment [7], in experiment [8] and in experiment [9] was greater than 25 µM in each case. Moreover, the EC50 in experiment [10], in experiment [11], in [12], in experiment [13], in experiment [14] and in experiment [15] was greater than 25 µM each time. Moreover, the EC50 in experiment [16] was 14 µM; in [17] it was greater than 25 µM.
Take `CCc1nc(C)c(C(=O)Nc2nc(-c3ccc4c(c3)CCC(=O)N4CCOC)cs2)o1` [Compound 110, 2-ethyl-N-(4-(1-(2-methoxyethyl)-2-oxo-1,2,3,4-tetrahydroquinolin-6-yl)thiazol-2-yl)-4-methyloxazole-5-carboxamide]: the IC50 was 6.8 µM in experiment [1]; 3.9 µM in experiment [2]; 10 µM in experiment [3]; 17 µM in experiment [4]; 4 µM in [5]; greater than 25 µM in experiment [6]. The IC50 in experiment [7] is 4 µM; in experiment [8], 0.778 µM; in [9], greater than 25 µM. Besides, the EC50 is 4 µM in [10]; greater than 25 µM in experiment [11]; 23 µM in experiment [12]; greater than 25 µM in experiment [13]; 3 µM in experiment [14]; 23 µM in [15]. Also, the results for the EC50 in experiment [16] and in [17] were 1.3 µM and 3 µM, respectively.
In the case of `Cc1nn(-c2ccc(F)cc2)c(C)c1C(=O)Nc1nc(-c2ccc3c(c2)CCC(=O)N3)cs1` [Compound 54, 1-(4-fluorophenyl)-3,5-dimethyl-N-(4-(2-oxo-1,2,3,4-tetrahydroquinolin-6-yl)thiazol-2-yl)-1-pyrazole-4-carboxamide], the IC50 in experiment [1] is 10.6 µM; in [2] it was 7.9 µM; in experiment [3], greater than 25 µM; in experiment [4], 15 µM; in [5], 13 µM; in experiment [6], 26 µM. Moreover, the figures for the IC50 in [7], in experiment [8] and in experiment [9] were 15 µM, 6 µM and 23 µM, respectively. Also, the EC50 in experiment [10], in experiment [11], in [12], in [13], in experiment [14] and in experiment [15] was greater than 25 µM in each case. Also, the EC50 was 3 µM in [16] and greater than 25 µM in experiment [17].
